Test results from paper PMC10740425, “How Deep Learning in Antiviral Molecular Profiling Identified Anti-SARS-CoV-2 Inhibitors” (Biomedicines, 2023).

System: SARS-CoV-2 beta variant
Design: species or system BALB/C mice
Conditions: mouse, in vivo, 5 mg/kg

## O=P(O)(O)OC[C@H]1O[C@@H](n2cnc3c(S)ncnc32)[C@H](O)[C@@H]1O [thioinosinic acid]
  lung viral titers compared to vehicle control: approximately tenfold lower

## Cn1cnc([N+](=O)[O-])c1Sc1ncnc2nc[nH]c12 [azathioprine]
  lung viral titers compared to vehicle control: did not demonstrate a significant reduction in viral titers
